Here are results for 12 molecules from publication PMC8767159, “Multiparameter Optimization of Trypanocidal Cruzain Inhibitors With In Vivo Activity and Favorable Pharmacokinetics” (Frontiers in Pharmacology, 2022).

Each structure is given as a SMILES string. Like-named read-outs stand apart in the source and are kept apart here.

The test system of series [1] is T. cruzi intracellular amastigotes. As to the kind of experiment: Assay against T. cruzi intracellular amastigotes (Tulahuen lacZ strain in HFF-1 fibroblasts). In kind it is cell-based, Trypanosoma cruzi. The method, then:
Biological assays against T. cruzi intracellular amastigotes were performed as reported previously using the T. cruzi Tulahuen strain, which is genetically engineered to express the E. coli β-galactosidase gene lacZ ([Buckner et al., 1996]). β-Galactosidase catalyzes a colorimetric reaction with chlorophenol red β-D-galactopyranoside (CPRG, Sigma Chemical Co., St. Louis, MO) as the substrate. The assays were conducted in 96-well tissue culture plates, and the compounds to be tested were prepared in 100% DMSO. Epimastigotes were maintained in liver infusion tryptone (LIT) enriched with 10% fetal calf serum (FCS), streptomycin, and penicillin at 28°C. Epimastigotes were converted to trypomastigotes by incubation in Grace’s insect medium (Sigma–Aldrich, St. Louis, MO) enriched with 10% FCS at 28°C. Human HFF-1 fibroblasts were seeded at 2 × 10^3/well in 80 μl of RPMI 1640 without phenol red and incubated overnight at 37°C and 5% CO2. Trypomastigotes were seeded at 1.0 × 10^4/well in 20 μl of RPMI 1640, and the plates were incubated at 37°C and 5% CO2. The next day, the synthesized compounds were added (50 μl) in 3-fold serial dilutions at concentrations ranging from 0.4 to 300 μM, and the plates were incubated at 37°C and 5% CO2. Each compound concentration was assayed in triplicate. After 120 h, 50 μl of chlorophenol red β-D-galactopyranoside (CPRG, Sigma–Aldrich) and IGEPAL CA-630 (Sigma–Aldrich) at a final concentration of 0.1% were added. The absorbance was measured at a wavelength of 570 nm in an automated microplate reader. The data were transferred to SigmaPlot 10.0 (Systat Software Inc., Erkrath, Germany) to determine the IC50 values. Benznidazole (BZ, Sigma–Aldrich) was used as a positive control, and untreated wells (100% parasite growth) were used as negative controls in all plates. All compounds were tested in three independent assays.

Series [2] in a line: Fraction unbound by equilibrium dialysis. The conditions noted are these: pH 7.4. In kind it is in vitro ADME. In a few lines: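 Test compounds at 1, 2, 20, 200, 2,000 and 5,000 nM in plasma, microsome suspension or buffer with 10% FCS, dialysed against 50 mM potassium phosphate pH 7.4 across a 12–14 kDa membrane, 37°C, 150 rpm, 4 h. Both sides quantified by LC-MS/MS against a standard curve; triplicates.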

Series [3] can be described thus: In vitro metabolic stability in mouse liver microsomes. In kind it is in vitro ADME. As to conditions: mouse, liver microsomes. In a few lines:
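Compounds incubated at 37°C with mouse or human liver microsomes (0.25 mg/ml) in potassium phosphate buffer with NADPH; samples quenched in ACN/MeOH at 0, 5, 10, 15, 20 and 30 min. Parent remaining by LC-MS/MS relative to 0 min; T½ = ln(2)/k, CLint = k*1000/0.25 (μL/min/mg).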

Setting [4] is: Trypanosoma cruzi, HFF-1, 120 h, Table 3, 120 h, mean ± SD of three assays.
The mark [5] stands for this setting: Trypanosoma cruzi, HFF-1, Table 4, mean ± SD of three assays.
Setting [6] is: Table S6, fraction unbound used to correct plasma clearance.
Where [7] appears, read: Table S5, CLint/fu, read-out: CLint_u (L/h/kg) Mouse (converted).
The mark [8] stands for this setting: Table S5, read-out: CLint (L/h/kg) Mouse (converted).
The mark [9] stands for this setting: Table 5, fraction unbound used to correct CLint.
Setting [10] is: Table 6, fraction unbound used to correct plasma clearance.
Where [11] appears, read: Table 5, CLint/fu, read-out: CLint_u (L/h/kg) mouse (converted).
Where [12] appears, read: Table 5, read-out: CLint (L/h/kg) mouse (converted).

The term IC50 denotes the concentration needed to halve the response being measured. Read a high IC50 as weaker potency in that assay. As usually defined, the fraction unbound is the share of the substance not bound to proteins or other matrix. Consider `NC(=O)Cn1c(CCNC(=O)COc2ccccc2)nc2ccccc21` [Compound 28], for which the IC50 in series [1] (setting [4]) and in series [1] (setting [5]) was 6.8 ± 0.9 µM in each case. Further, the fraction unbound at 4 h, 1 µM came to 0.98 in series [2] (Table S5, fraction unbound) and 0.18 in series [2] (setting [6]). The CLint scaled at 5 µM was 5.43 L/h/kg in series [3] (setting [7]) and 5.34 L/h/kg in series [3] (setting [8]).

As to `O=C(COc1ccccc1Br)NCCc1nc2ccccc2[nH]1` [Compound 18], the IC50 amounted to 1.63 ± 0.57 µM in series [1] (Table 4, mean ± SD of three assays) and 1.6 µM in series [1] (setting [5]). Moreover, the unbound share (fraction unbound) at 4 h, 1 µM came to 0.6 in series [2] (setting [9]) and 0.03 in series [2] (setting [10]). The CLint scaled at 5 µM in series [3] (setting [11]) is 334 L/h/kg; in series [3] (setting [12]), 191 L/h/kg.

Turning to `O=C(COc1ccc2ccc(O)cc2c1)NCCc1nc2ccccc2[nH]1` [Compound 11], in series [1] (setting [4]), the midpoint of inhibition, the IC50, lay at 2.8 ± 0.6 µM. Moreover, the free fraction (fraction unbound) at 4 h, 1 µM in series [2] (Table S5, fraction unbound) turned out to be 0.67; in series [2] (setting [6]), 0.03. For the same molecule, the values for the CLint scaled at 5 µM in series [3] (setting [7]) and in series [3] (setting [8]) were 68.5 L/h/kg and 45.7 L/h/kg, respectively.

In the case of `O=C(COc1ccc2cc(O)ccc2c1)NCCc1nc2ccccc2[nH]1` [Compound 10], the IC50 in series [1] (setting [4]) and in series [1] (setting [5]) was 14.6 ± 0.7 µM throughout. The fraction unbound at 4 h, 1 µM in series [2] (Table S5, fraction unbound) amounted to 0.82; in series [2] (setting [6]) it was 0.34. Also, the CLint scaled at 5 µM in series [3] (setting [7]) was 32.3 L/h/kg; in series [3] (setting [8]), 26.4 L/h/kg.

With `CC(=O)Nc1cccc(OCC(=O)NCCc2nc3ccccc3[nH]2)c1` [Compound 3], the concentration for half-maximal inhibition (IC50) in series [1] (setting [4]) and in series [1] (setting [5]) was 5 ± 1 µM in each case. For the same molecule, the fraction unbound at 4 h, 1 µM in series [2] (Table S5, fraction unbound) is 1; in series [2] (setting [6]), 0.16. Further, the CLint scaled at 5 µM in series [3] (setting [7]) and in series [3] (setting [8]) was 10.6 L/h/kg each time.

For `C=CCCn1c(CCNC(=O)COc2ccccc2)nc2ccccc21` [Compound 27], the IC50 in series [1] (setting [4]) and in series [1] (setting [5]) was 6.9 ± 2.2 µM each time. The fraction unbound at 4 h, 1 µM in series [2] (Table S5, fraction unbound) was found to be 0.86. For the same molecule, the CLint scaled at 5 µM in series [3] (setting [7]) was 756 L/h/kg; in series [3] (setting [8]), 650 L/h/kg.

Regarding `Nc1cccc(OCC(=O)NCCc2nc3ccccc3[nH]2)c1` [Compound 9], the midpoint of inhibition in series [1] (setting [4]), the IC50, lay at 5.4 ± 0.9 µM. In series [2] (Table S5, fraction unbound), this molecule displayed a fraction unbound at 4 h, 1 µM of 0.99. The CLint scaled at 5 µM in series [3] (setting [7]) is 22.8 L/h/kg; in series [3] (setting [8]), 22.7 L/h/kg.

As for `CC(=O)Nc1ccc(OCC(=O)NCCc2nc3ccccc3[nH]2)cc1` [Compound 2], the IC50 in series [1] (setting [4]) was determined as 4.5 ± 0.6 µM; in series [1] (setting [5]), 12.1 ± 1.3 µM. Also, the free fraction (fraction unbound) at 4 h, 1 µM amounted to 1 in series [2] (Table S5, fraction unbound) and 0.49 in series [2] (setting [6]). Further, the CLint scaled at 5 µM in series [3] (setting [7]) and in series [3] (setting [8]) was less than 4.43 L/h/kg throughout.

Take `O=C(Cn1ccnc1[N+](=O)[O-])NCc1ccccc1` [BZ, benznidazole, reference compound]: the 50% inhibitory concentration (IC50) in series [1] (Trypanosoma cruzi, HFF-1, Table 3, 120 h, mean ± SD of three assays) worked out at 1.45 ± 0.4 µM; in series [1] (setting [5]), 3 ± 0.6 µM. Besides, the fraction unbound at 4 h, 1 µM was 1 in series [2] (setting [9]) and 0.99 in series [2] (setting [10]). In addition, the CLint scaled at 5 µM in series [3] (setting [11]) is 4.4 L/h/kg; in series [3] (setting [12]), 4.4 L/h/kg; in series [3] (setting [7]), 4.43 L/h/kg; in series [3] (setting [8]), 4.43 L/h/kg.

For `O=C(COc1cccc([N+](=O)[O-])c1)NCCc1nc2ccccc2[nH]1` [Compound 8], the IC50 in series [1] (setting [4]) and in series [1] (setting [5]) was 3.5 ± 0.7 µM throughout. For the same molecule, the fraction unbound at 4 h, 1 µM is 1 in series [2] (Table S5, fraction unbound) and 0.14 in series [2] (setting [6]). The CLint scaled at 5 µM in series [3] (setting [7]) and in series [3] (setting [8]) was 67.5 L/h/kg throughout.

In the case of `O=C(COc1ccccc1)NCCc1nc2ccccc2n1Cc1ccccc1` [Compound 26], the IC50 in series [1] (setting [4]) and in series [1] (setting [5]) was 7.4 ± 2 µM throughout. Moreover, in series [2] (Table S5, fraction unbound), the fraction unbound at 4 h, 1 µM is 0.61. For the same molecule, the CLint scaled at 5 µM in series [3] (setting [7]) was 1010 L/h/kg; in series [3] (setting [8]) it was 620 L/h/kg.

`O=C(COc1ccc2ccccc2c1Br)NCCc1nc2ccccc2[nH]1` [Compound 34]: the concentration for half-maximal inhibition (IC50) in series [1] (setting [5]) turned out to be 16.2 ± 3.51 µM. This molecule also returned an unbound share (fraction unbound) at 4 h, 1 µM in series [2] (setting [9]) of 0.1. Also, the CLint scaled at 5 µM in series [3] (setting [12]) is 607 L/h/kg.
